Laboratory results from patent US8013153B2, “Substituted pyrimidine kinase inhibitors” (Janssen Pharmaceutica, N.V., priority 2006, dated 2011).
Like-named read-outs stand apart in the source and are kept apart here.

What was measured:
murine Aurora-A = target: T1, murine Aurora-A (Mus musculus, UniProt P97477); assay: Aurora-A Screening Assay; type: biochemical
T1 construct: replaced with the full length protein encoding the murine Aurora-A; made in house; host or cells: sf9 insect cells
T1 sequence (P97477 1-395): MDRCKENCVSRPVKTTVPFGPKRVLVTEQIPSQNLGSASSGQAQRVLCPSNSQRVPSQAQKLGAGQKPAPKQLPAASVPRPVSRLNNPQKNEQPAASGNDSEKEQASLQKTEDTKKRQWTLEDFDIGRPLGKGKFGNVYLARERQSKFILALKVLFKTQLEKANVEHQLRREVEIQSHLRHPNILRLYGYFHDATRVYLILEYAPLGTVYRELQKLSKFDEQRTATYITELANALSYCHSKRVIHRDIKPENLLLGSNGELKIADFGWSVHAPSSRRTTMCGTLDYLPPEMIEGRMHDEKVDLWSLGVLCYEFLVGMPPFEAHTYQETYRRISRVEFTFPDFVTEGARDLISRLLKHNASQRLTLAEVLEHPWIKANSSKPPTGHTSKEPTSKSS

[1] = target: T2, rat VEGF-R2 kinase domain (Rattus norvegicus, UniProt O08775); assay: VEGF-R2 Screening Assay; type: biochemical
T2 construct: amino acids 786-1343 of the rat VEGF-R2 kinase domain; polyhistidine (N)

[2] = system: HeLa cervical adenocarcinoma; assay: Inhibition of in vitro cell proliferation (HeLa); type: cell-based, human; settings: Homo sapiens, 14C-thymidine incorporation;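 note: cells exposed to compound for 24 h, then labelled 24 h with methyl 14C-thymidine, with uptake into DNA counted by scintillation against DMSO-only control wells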
A375 malignant melanoma = assay: Inhibition of in vitro cell proliferation (A375); type: cell-based, human; settings: Homo sapiens, A-375, 14C-thymidine incorporation;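 note: cells plated for 24 h, given compound for 24 h, then labelled with 14C-thymidine for another 24 h, with DMSO-only wells as control and counts read by scintillation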
HER2 cytoplasmic domain = target: T3, HER2 cytoplasmic domain (Homo sapiens, UniProt P04626); assay: HER2 Kinase Screening Assay; type: biochemical; settings: > means no observed 50% inhibition at the indicated test concentration; ~ means approximately 50% inhibition at that concentration
T3 construct: polyhistidine (N)

HCT-116 colon carcinoma = assay: Inhibition of in vitro cell proliferation (HCT116); type: cell-based, human; settings: Homo sapiens, HCT-116, 14C-thymidine incorporation;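 note: cells exposed to compound for 24 h, then 14C-thymidine added for a further 24 h and its uptake into DNA counted by scintillation, DMSO-only wells as control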
CDK1:Cyclin-B = target: T4, CDK1:Cyclin-B (Homo sapiens, UniProt P06493); assay: CDK1 Screening Assay; type: biochemical
T4 construct: purchased New England Biolabs, Beverly, Mass; 6020; host or cells: insect cells

[3] = > means no observed 50% inhibition at the indicated test concentration, ~ means approximately 50% inhibition at that concentration, read-out: IC50 VEGF-R2

T4 sequence (P06493 whole entry): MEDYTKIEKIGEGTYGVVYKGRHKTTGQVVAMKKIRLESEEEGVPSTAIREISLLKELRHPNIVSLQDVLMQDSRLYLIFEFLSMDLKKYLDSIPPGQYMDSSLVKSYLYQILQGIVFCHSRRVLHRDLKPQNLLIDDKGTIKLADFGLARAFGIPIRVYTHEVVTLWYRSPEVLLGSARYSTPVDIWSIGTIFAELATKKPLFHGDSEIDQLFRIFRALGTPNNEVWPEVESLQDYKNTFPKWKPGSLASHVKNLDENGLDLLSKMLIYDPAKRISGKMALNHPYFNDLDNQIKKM
T4 sequence (P14635 whole entry partner): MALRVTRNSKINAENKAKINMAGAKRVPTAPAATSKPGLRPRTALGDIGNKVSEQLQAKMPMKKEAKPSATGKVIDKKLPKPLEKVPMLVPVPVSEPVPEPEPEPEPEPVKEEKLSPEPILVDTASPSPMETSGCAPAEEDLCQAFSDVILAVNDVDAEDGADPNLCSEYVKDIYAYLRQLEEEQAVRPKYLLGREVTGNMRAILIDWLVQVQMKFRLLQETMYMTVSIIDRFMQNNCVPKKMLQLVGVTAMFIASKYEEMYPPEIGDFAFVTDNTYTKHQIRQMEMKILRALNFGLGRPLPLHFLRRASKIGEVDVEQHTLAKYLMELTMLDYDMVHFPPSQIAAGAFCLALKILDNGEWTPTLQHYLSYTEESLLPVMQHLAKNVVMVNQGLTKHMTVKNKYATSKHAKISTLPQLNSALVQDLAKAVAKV
T2 sequence (O08775 786-1343): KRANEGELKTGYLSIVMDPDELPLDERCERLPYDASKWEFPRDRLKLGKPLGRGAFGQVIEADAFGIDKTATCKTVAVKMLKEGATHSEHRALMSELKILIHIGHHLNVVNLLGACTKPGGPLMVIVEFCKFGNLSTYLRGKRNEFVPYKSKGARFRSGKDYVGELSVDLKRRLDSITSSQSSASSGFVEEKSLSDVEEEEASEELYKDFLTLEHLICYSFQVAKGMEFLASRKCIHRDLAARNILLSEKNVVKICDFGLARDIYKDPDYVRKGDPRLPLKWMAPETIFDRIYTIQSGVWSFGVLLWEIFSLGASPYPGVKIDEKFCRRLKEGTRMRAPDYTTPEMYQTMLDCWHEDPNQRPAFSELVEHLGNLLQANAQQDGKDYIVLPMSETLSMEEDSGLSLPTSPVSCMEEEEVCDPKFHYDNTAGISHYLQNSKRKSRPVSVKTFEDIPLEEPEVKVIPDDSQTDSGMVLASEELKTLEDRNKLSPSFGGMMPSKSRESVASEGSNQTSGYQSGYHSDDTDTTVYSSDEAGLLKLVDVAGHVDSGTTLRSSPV
T3 sequence (P04626 676-1255 limits assumed): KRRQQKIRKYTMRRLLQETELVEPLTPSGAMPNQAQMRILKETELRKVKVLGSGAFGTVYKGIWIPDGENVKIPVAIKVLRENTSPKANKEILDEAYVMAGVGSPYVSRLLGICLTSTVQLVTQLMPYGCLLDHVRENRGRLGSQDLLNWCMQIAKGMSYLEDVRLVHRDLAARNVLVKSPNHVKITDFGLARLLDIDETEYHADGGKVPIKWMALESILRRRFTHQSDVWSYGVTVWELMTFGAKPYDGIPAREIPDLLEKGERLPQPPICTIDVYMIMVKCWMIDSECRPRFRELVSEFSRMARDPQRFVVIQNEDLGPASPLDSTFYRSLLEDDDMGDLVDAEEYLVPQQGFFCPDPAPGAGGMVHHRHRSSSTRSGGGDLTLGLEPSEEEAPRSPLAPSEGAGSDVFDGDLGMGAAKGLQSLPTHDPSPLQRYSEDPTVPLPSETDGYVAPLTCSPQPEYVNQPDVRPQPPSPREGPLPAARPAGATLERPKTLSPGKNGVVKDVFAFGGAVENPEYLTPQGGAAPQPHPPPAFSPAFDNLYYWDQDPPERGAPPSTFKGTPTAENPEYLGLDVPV

| Compound | IC50 (murine Aurora-A) | IC50 [1, 3] | IC50 [2] | IC50 (A375 malignant melanoma) | IC50 (HER2 cytoplasmic domain) | IC50 (HCT-116 colon carcinoma) | IC50 (CDK1:Cyclin-B) | IC50 ([1]; IC50 VEGF-R2) |
| --- | --- | --- | --- | --- | --- | --- | --- | --- |
| CON=Cc1c(N)ncnc1Oc1ccc(NC(=O)NCCN(C)C)c(Cl)c1 [Cpd 82, 1-{4-[6-amino-5-(methoxyimino-methyl)-pyrimidin-4-yloxy]-2-chloro-phenyl}-3-(2-dimethylamino-ethyl)-urea] | > 100 µM | 0.285 µM | > 10 µM | > 10 µM | > 10 µM | > 10 µM | > 100 µM |  |
| CON=Cc1c(N)ncnc1Oc1ccc(NC(=O)NCCCO)c(Cl)c1 [Cpd 83, 1-{4-[6-amino-5-(methoxyimino-methyl)-pyrimidin-4-yloxy]-2-chloro-phenyl}-3-(3-hydroxy-propyl)-urea] | > 100 µM |  | 4.18 µM | 3.94 µM | > 10 µM | 3.78 µM | > 100 µM | 0.4 µM |
| CON=Cc1c(N)ncnc1Oc1ccc(NC(=O)NCCCCN2CCCC2)c(Cl)c1 [Cpd 84, 1-{4-[6-amino-5-(methoxyimino-methyl)-pyrimidin-4-yloxy]-2-chloro-phenyl}-3-(4-pyrrolidin-1-yl-butyl)-urea] | > 10 µM | 0.759 µM | > 10 µM | > 1 µM | > 10 µM | > 10 µM | > 100 µM |  |
| CON=Cc1c(N)ncnc1Oc1ccc(NC(=O)NC2CC2)c(Cl)c1 [Cpd 85, 1-{4-[6-amino-5-(methoxyimino-methyl)-pyrimidin-4-yloxy]-2-chloro-phenyl}-3-cyclopropyl-urea] | > 100 µM | 0.029 µM | > 100 µM | > 10 µM | > 100 µM | > 100 µM | > 100 µM |  |
| CON=Cc1c(N)ncnc1Oc1ccc(NC(=O)Nc2ccccn2)c(Cl)c1 [Cpd 86, 1-{4-[6-amino-5-(methoxyimino-methyl)-pyrimidin-4-yloxy]-2-chloro-phenyl}-3-pyridin-2-yl-urea] | > 100 µM | 0.034 µM | > 10 µM | 6.25 µM | > 100 µM | > 10 µM | > 100 µM |  |
| CON=Cc1c(N)ncnc1Oc1ccc(NC(=O)Nc2cccnc2)c(Cl)c1 [Cpd 87, 1-{4-[6-amino-5-(methoxyimino-methyl)-pyrimidin-4-yloxy]-2-chloro-phenyl}-3-pyridin-3-yl-urea] | > 100 µM | 0.01 µM | 4.63 µM | 3.41 µM | > 1 µM | 4.67 µM | > 100 µM |  |
| CON=Cc1c(N)ncnc1Oc1ccc(NC(=O)Nc2ccncc2)c(Cl)c1 [Cpd 88, 1-{4-[6-amino-5-(methoxyimino-methyl)-pyrimidin-4-yloxy]-2-chloro-phenyl}-3-pyridin-4-yl-urea] | > 10 µM |  | 7.39 µM | 4.34 µM | > 10 µM | 4.69 µM | > 100 µM | 0.011 µM |
| CON=Cc1c(N)ncnc1Oc1ccc(NC(=O)Nc2nc(C)cs2)c(Cl)c1 [Cpd 89, 1-{4-[6-amino-5-(methoxyimino-methyl)-pyrimidin-4-yloxy]-2-chloro-phenyl}-3-(4-methyl-thiazol-2-yl)-urea] | > 100 µM | 0.0039 µM | > 10 µM | 2.19 µM | > 1 µM | > 10 µM | > 100 µM |  |
| CON=Cc1c(N)ncnc1Oc1ccc(NC(=O)Nc2ncc(C)s2)c(Cl)c1 [Cpd 90, 1-{4-[6-amino-5-(methoxyimino-methyl)-pyrimidin-4-yloxy]-2-chloro-phenyl}-3-(5-methyl-thiazol-2-yl)-urea] | > 10 µM | 0.037 µM | > 100 µM | > 10 µM | > 1 µM | > 10 µM | > 100 µM |  |
| CON=Cc1c(N)ncnc1Oc1ccc(NC(=O)Nc2nccs2)c(Cl)c1 [Cpd 91, 1-{4-[6-amino-5-(methoxyimino-methyl)-pyrimidin-4-yloxy]-2-chloro-phenyl}-3-thiazol-2-yl-urea] | > 10 µM | 0.0034 µM | 3.24 µM | 0.929 µM | > 1 µM | 3.04 µM | > 100 µM |  |
